One experiment deals with PTGER2 (EP2) (Homo sapiens (Human), UniProt P43116). The experiment is described as follows: hEP2 b-arrestin assay (PathHunter HEK 293 PTGER2 b-arrestin cells). In kind it is cell-based. The procedure, abridged:
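HEK293 cells expressing ProLink-tagged EP2 and EA-fused β-arrestin 2 (enzyme fragment complementation) were seeded 24 h, pre-incubated with compound 15 min at 37 °C, then stimulated with 5 μM PGE2 (final) for 120 min.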

For another experiment, the target named is PTRGER4 (EP4) (Homo sapiens (Human), UniProt P35408). The experiment is described as follows: hEP4 b-arrestin assay (PathHunter HEK 293 PTGER4 b-arrestin cells). In kind it is cell-based. The gist of the method:
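Stably transfected HEK293 cells carrying EP4–ProLink and β-arrestin 2–EA (β-gal fragment complementation), pre-incubated with compound 15 min at 37 °C, then stimulated with PGE2 (20 nM final) for 120 min at 37 °C. Chemiluminescence read after 1 h detection reagent at room temperature; activity per concentration expressed as percent of DMSO control.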

The mark [1] stands for this setting: hEP2 b-arrestin assay (values without asterisk).
Where [2] appears, read: hEP4 b-arrestin assay (values without asterisk).
Where [3] appears, read: antagonistic activity on hEP2, mean where measured multiple times.
Where [4] appears, read: antagonistic activity on hEP4, mean where measured multiple times.

PTRGER4 (EP4), sequence (P35408 whole entry, looked up, the tested form may be a part): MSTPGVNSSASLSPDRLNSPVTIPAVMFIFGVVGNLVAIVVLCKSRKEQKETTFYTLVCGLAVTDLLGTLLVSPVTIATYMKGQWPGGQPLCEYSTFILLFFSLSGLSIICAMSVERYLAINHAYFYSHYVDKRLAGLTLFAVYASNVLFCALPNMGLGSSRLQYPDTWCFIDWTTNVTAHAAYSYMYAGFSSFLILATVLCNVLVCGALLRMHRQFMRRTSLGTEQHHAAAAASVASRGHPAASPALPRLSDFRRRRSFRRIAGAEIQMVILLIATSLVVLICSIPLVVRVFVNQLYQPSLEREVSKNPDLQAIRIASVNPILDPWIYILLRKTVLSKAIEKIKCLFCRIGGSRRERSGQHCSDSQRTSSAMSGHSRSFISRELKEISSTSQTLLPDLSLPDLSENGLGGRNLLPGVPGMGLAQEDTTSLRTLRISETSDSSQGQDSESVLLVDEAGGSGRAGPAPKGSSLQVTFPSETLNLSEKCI
PTGER2 (EP2), sequence (P43116 whole entry, the tested form may be a part): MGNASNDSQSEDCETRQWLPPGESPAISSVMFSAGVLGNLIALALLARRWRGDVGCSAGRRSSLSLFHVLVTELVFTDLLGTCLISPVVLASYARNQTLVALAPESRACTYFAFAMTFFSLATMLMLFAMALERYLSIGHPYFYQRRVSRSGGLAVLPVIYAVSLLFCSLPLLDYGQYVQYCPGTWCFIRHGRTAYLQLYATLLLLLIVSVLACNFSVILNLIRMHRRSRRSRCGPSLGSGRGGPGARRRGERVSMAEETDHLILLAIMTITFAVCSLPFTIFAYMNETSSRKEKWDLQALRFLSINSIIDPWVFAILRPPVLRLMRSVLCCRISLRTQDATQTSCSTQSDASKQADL

`CCOc1cc(-c2cc(NCCn3c(C#N)cc4c(OC)cc(F)c(F)c43)ncn2)ccc1OCC(=O)O` [Example 944, (4-{6-[2-(2-Cyano-6,7-difluoro-4-methoxy-indol-1-yl)-ethylamino]-pyrimidin-4-yl}-2-ethoxy-phenoxy)-acetic acid]: the concentration for half-maximal inhibition (IC50) on PTGER2 (EP2) (setting [1]) is 16 nM; against PTRGER4 (EP4) (setting [2]) it was 7 nM.
Turning to `CCc1cc(-c2cc(NCCn3c(C)cc4cc(Cl)cc(F)c43)ncn2)sc1C(=O)O` [compound 242], the IC50 turned out to be 111 nM on PTGER2 (EP2) (setting [3]) and 216 nM against PTRGER4 (EP4) (setting [4]).
For the compound `CCOc1cc(-c2cc(NCCn3c(C#N)cc4c(OC)ccc(F)c43)ncn2)ccc1-c1nnn[nH]1` [Example 803, 1-(2-{6-[3-Ethoxy-4-(1H-tetrazol-5-yl)-phenyl]-pyrimidin-4-ylamino}-ethyl)-7-fluoro-4-methoxy-1H-indole-2-carbonitrile], the IC50 on PTGER2 (EP2) (setting [1]) turned out to be 10 nM; at PTRGER4 (EP4) (setting [2]) it was 4 nM.
Regarding `COc1ccc(F)c2c1cc(C)n2CCNc1cc(-c2cc(F)c(S(N)(=O)=O)c(F)c2)ncn1` [compound 359, 2,6-Difluoro-4-{6-[2-(7-fluoro-4-methoxy-2-methyl-indol-1-yl)-ethylamino]-pyrimidin-4-yl}-benzenesulfonamide], the half-maximal inhibitory concentration (IC50) on PTGER2 (EP2) (setting [3]) was found to be 34 nM; at PTRGER4 (EP4) (setting [4]), 500 nM.
Taken in the same sequence, the figures for `CCCc1cc(-c2cc(NCCn3c(C)cc4c(F)ccc(F)c43)ncn2)ccc1C(=O)O` [compound 144, 4-{6-[2-(4,7-Difluoro-2-methyl-indol-1-yl)-ethylamino]-pyrimidin-4-yl}-2-propyl-benzoic acid] were 3 nM and 658 nM.
For `COc1ccc(F)c2c1cc(C)n2CCNc1cc(-c2cc(Cl)c(C(=O)O)c(Cl)c2)ncn1` [compound 293] the same measures were 19 nM and 113 nM.
Taken in the same sequence, the figures for `Cc1ccc(C)c2c1cc(C)n2CCNc1cc(-c2ccc(C(=O)O)c(CC(C)C)c2)ncn1` [compound 328, 2-Isobutyl-4-{6-[2-(2,4,7-trimethyl-indol-1-yl)-ethylamino]-pyrimidin-4-yl}-benzoic acid] were 62 nM and 570 nM.
In the case of `COc1cccc2c1cc(C)n2CCNc1cc(-c2ccc(S(N)(=O)=O)c(C)c2)ncn1` [compound 139, 4-{6-[2-(4-Methoxy-2-methyl-indol-1-yl)-ethylamino]-pyrimidin-4-yl}-2-methyl-benzenesulfonamide], the IC50 came to 28 nM on PTGER2 (EP2) (setting [3]) and 939 nM against PTRGER4 (EP4) (setting [4]).
For the compound “4-{6-[2-(2-Cyano-7-fluoro-4-methoxy-indol-1-yl)-ethylamino]-pyrimidin-4-yl}-phthalic acid 2-ethyl ester [Example 965]”, the concentration for half-maximal inhibition (IC50) at PTGER2 (EP2) (setting [1]) is 53 nM; on PTRGER4 (EP4) (setting [2]), 43 nM.
With `Cc1cc2cc(F)cc(F)c2n1CCNc1cc(-c2ccc(C(=O)O)c(CC(C)C)c2)ncn1` [compound 333, 4-{6-[2-(5,7-Difluoro-2-methyl-indol-1-yl)-ethylamino]-pyrimidin-4-yl}-2-isobutyl-benzoic acid], the IC50 against PTGER2 (EP2) (setting [3]) worked out at 15 nM; against PTRGER4 (EP4) (setting [4]), 483 nM.
Taken in the same sequence, the figures for `CCc1cc(-c2cc(NCCn3c(C)cc4cc(OC)cc(F)c43)ncn2)sc1C(=O)O` [compound 231] were 185 nM and 133 nM.
For `Cc1ccc(F)c2c1cc(C)n2CCNc1cc(-c2ccc3nccnc3c2)ncn1` [compound 55, [2-(7-Fluoro-2,4-dimethyl-indol-1-yl)-ethyl]-(6-quinoxalin-6-yl-pyrimidin-4-yl)-amine] the same measures were 63 nM and 570 nM.
For `CC(C)Cc1cc(-c2cc(NCCn3c(C#N)cc4ccccc43)ncn2)ccc1C(=O)O` [compound 165, 4-{6-[2-(2-Cyano-indol-1-yl)-ethylamino]-pyrimidin-4-yl}-2-isobutyl-benzoic acid] the same measures were 19 nM and 230 nM.
`CCOc1cc(-c2cc(NCCn3c(C)cc4c(C)cc(F)c(Cl)c43)ncn2)ccc1C(=O)O` [compound 210]: the IC50 against PTGER2 (EP2) (setting [3]) is 472 nM; against PTRGER4 (EP4) (setting [4]), 991 nM.
For the compound `CCOc1cc(-c2cc(NCCn3c(C)c(F)c4ccccc43)ncn2)sc1C(=O)O` [Example 875, 3-Ethoxy-5-{6-[2-(3-fluoro-2-methyl-indol-1-yl)-ethylamino]-pyrimidin-4-yl}-thiophene-2-carboxylic acid], the half-maximal inhibitory concentration (IC50) was 4 nM on PTGER2 (EP2) (setting [1]) and 26 nM against PTRGER4 (EP4) (setting [2]).
Turning to `CNc1cc(-c2cc(NCCn3c(C)cc4c(OC)ccc(Cl)c43)ncn2)ccc1C(=O)O` [compound 250], the half-maximal inhibitory concentration (IC50) at PTGER2 (EP2) (setting [3]) was found to be 3 nM; on PTRGER4 (EP4) (setting [4]), 103 nM.
For `COc1ccc(Cl)c2c1cc(C)n2CCNc1cc(-c2cc(Cl)c(C(=O)O)c(Cl)c2)ncn1` [compound 292] the same measures were 52 nM and 397 nM.
Consider `Cc1cc2c(Cl)ccc(Cl)c2n1CCNc1cc(-c2ccc(C(=O)O)c(SCC(C)C)c2)ncn1` [compound 370, 4-{6-[2-(4,7-Dichloro-2-methyl-indol-1-yl)-ethylamino]-pyrimidin-4-yl}-2-isobutylsulfanyl-benzoic acid], for which the values for the IC50 at PTGER2 (EP2) (setting [3]) and on PTRGER4 (EP4) (setting [4]) were 35 nM and 992 nM, respectively.
Taken in the same sequence, the figures for `COc1cccc2c1cc(C)n2CCNc1cc(-c2ccc(-c3ncc[nH]3)cc2)ncn1` [compound 76, {6-[4-(1H-Imidazol-2-yl)-phenyl]-pyrimidin-4-yl}-[2-(4-methoxy-2-methyl-indol-1-yl)-ethyl]-amine] were 21 nM and 651 nM.
Taken in the same sequence, the figures for `CCNc1cc(-c2cc(NCCn3c(C)cc4c(C)cc(F)cc43)ncn2)ccc1C(=O)O` [compound 244] were 2 nM and 86 nM.
Regarding `CCOc1cc(-c2cc(NCCn3c(C#N)cc4c(OC)cccc43)ncn2)sc1C(=O)O` [Example 813, 5-{6-[2-(2-Cyano-4-methoxy-indol-1-yl)-ethylamino]-pyrimidin-4-yl}-3-ethoxy-thiophene-2-carboxylic acid], the values for the IC50 against PTGER2 (EP2) (setting [1]) and against PTRGER4 (EP4) (setting [2]) were 2 nM and 3 nM, respectively.
As to `CCOc1cc(-c2cc(NCCn3c(C)cc4c(OC)ccc(F)c43)ncn2)sc1C(=N)NO` [Example 1052, 3-Ethoxy-5-{6-[2-(7-fluoro-4-methoxy-2-methyl-indol-1-yl)-ethylamino]-pyrimidin-4-yl}-N-hydroxy-thiophene-2-carboxamidine], the half-inhibitory concentration (IC50) was found to be 3 nM against PTGER2 (EP2) (setting [1]) and 7 nM at PTRGER4 (EP4) (setting [2]).
Taken in the same sequence, the figures for `CCOc1cc(-c2cc(NC(C)Cn3c(C)cc4c(OC)ccc(F)c43)ncn2)sc1C(=O)O` (racemic) [Example 797, rac-3-Ethoxy-5-{6-[2-(7-fluoro-4-methoxy-2-methyl-indol-1-yl)-1-methyl-ethylamino]-pyrimidin-4-yl}-thiophene-2-carboxylic acid] were 33 nM and 64 nM.
For `COCCOc1ccc(-c2cc(NCCn3c(C#N)cc4c(OC)ccc(F)c43)ncn2)cc1` [Example 963, 7-Fluoro-4-methoxy-1-(2-{6-[4-(2-methoxy-ethoxy)-phenyl]-pyrimidin-4-ylamino}-ethyl)-1H-indole-2-carbonitrile] the same measures were 194 nM and 126 nM.
For `COc1ccc(F)c2c1cc(C#N)n2CCNc1cc(-c2ccnc(N3CCCC3)c2)ncn1` [Example 997, 7-Fluoro-4-methoxy-1-{2-[6-(2-pyrrolidin-1-yl-pyridin-4-yl)-pyrimidin-4-ylamino]-ethyl}-1H-indole-2-carbonitrile] the same measures were 58 nM and 143 nM.
`COc1ccc(F)c2c1cc(C#N)n2CCNc1cc(-c2cc3ccc(C(=O)O)cc3[nH]2)ncn1` [Example 1076, 2-(6-((2-(2-Cyano-7-fluoro-4-methoxy-1H-indol-1-yl)ethyl)amino)pyrimidin-4-yl)-1H-indole-6-carboxylic acid]: the values for the concentration for half-maximal inhibition (IC50) against PTGER2 (EP2) (setting [1]) and at PTRGER4 (EP4) (setting [2]) were 6 nM and 39 nM, respectively.
On to `COc1ccc(F)c2c1cc(C#N)n2CCNc1cc(-c2ccc3c(c2)N(C)C(=O)NC3)ncn1` [Example 919, 7-Fluoro-4-methoxy-1-{2-[6-(1-methyl-2-oxo-1,2,3,4-tetrahydro-quinazolin-7-yl)-pyrimidin-4-ylamino]-ethyl}-1H-indole-2-carbonitrile], for which the half-inhibitory concentration (IC50) against PTGER2 (EP2) (setting [1]) turned out to be 10 nM; on PTRGER4 (EP4) (setting [2]) it was 3 nM.
For the compound `Cc1c(F)cc2c(cc(C)n2CCNc2cc(-c3ccc(C(=O)O)c(CC(C)C)c3)ncn2)c1F` [compound 102], the values for the IC50 at PTGER2 (EP2) (setting [3]) and against PTRGER4 (EP4) (setting [4]) were 142 nM and 597 nM, respectively.
Take `COc1ccc(F)c2c1c(F)c(C)n2CCNc1cc(-c2cc(C(F)(F)F)c(C(=O)O)s2)ncn1` [Example 1058, 5-{6-[2-(3,7-Difluoro-4-methoxy-2-methyl-indol-1-yl)-ethylamino]-pyrimidin-4-yl}-3-trifluoromethyl-thiophene-2-carboxylic acid]: the IC50 is 51 nM against PTGER2 (EP2) (setting [1]) and 19 nM at PTRGER4 (EP4) (setting [2]).
In the case of `COc1ccc(F)c2c1cc(C#N)n2CCNc1cc(-c2cnc3[nH]ccc3c2)ncn1` [Example 979, 7-Fluoro-4-methoxy-1-{2-[6-(1H-pyrrolo[2,3-b]pyridin-5-yl)-pyrimidin-4-ylamino]-ethyl}-1H-indole-2-carbonitrile], the IC50 was determined as 4 nM against PTGER2 (EP2) (setting [1]) and 15 nM on PTRGER4 (EP4) (setting [2]).
Regarding `COc1ccc(F)c2c1cc(C)n2CCNc1cc(-c2ccc(-c3nnc[nH]3)cc2)ncn1` [compound 208, [2-(7-Fluoro-4-methoxy-2-methyl-indol-1-yl)-ethyl]-{6-[4-(4H-[1,2,4]triazol-3-yl)-phenyl]-pyrimidin-4-yl}-amine], the IC50 at PTGER2 (EP2) (setting [3]) is 11 nM; against PTRGER4 (EP4) (setting [4]), 102 nM.
Taken in the same sequence, the figures for `COc1cc(F)c(F)c2c1cc(C)n2CCNc1cc(-c2ccc3c(c2)CC(=O)N3)ncn1` [compound 199] were 102 nM and 166 nM.
For `COc1ccc(F)c2c1cc(C)n2CCNc1cc(-c2cnc(N3CCOCC3)s2)ncn1` [compound 181] the same measures were 173 nM and 864 nM.

In general, IC50 refers to the concentration that gives 50% inhibition.

The record behind these values is patent US12011444B2, “N-substituted indole derivatives as PGE2 receptor modulators” (Idorsia Pharmaceuticals Ltd, priority 2015, dated 2024).
